PMC6978363, “Chaperone mediated detection of small molecule target binding in cells” (Nature Communications, 2020)

Assays:
Test in all cases: biochemical
Conditions in all cases: read-out: % Inhibition (at 10mM)
Fyn = Fyn (Homo sapiens, UniProt P06241)
CamKIV = biological target: T1, CamKIV (Homo sapiens, UniProt Q16566)
T1 construct: gene CAMK4

DYRK1A = DYRK1A (Homo sapiens, UniProt Q13627)
PKC_gamma = biological target: T2, PKC_gamma (Homo sapiens, UniProt P05129)
T2 construct: gene PRKCG

EphA8 = EphA8 (Homo sapiens, UniProt P29322)
ERK2 = biological target: T3, ERK2 (Homo sapiens, UniProt P28482)
T3 construct: gene MAPK1

IRR = biological target: T4, IRR (Homo sapiens, UniProt P14616)
T4 construct: gene INSRR

Bmx = Bmx (Homo sapiens, UniProt P51813)
PKC_epsilon = biological target: T5, PKC_epsilon (Homo sapiens, UniProt Q02156)
T5 construct: gene PRKCE

JAK3 = JAK3 (Homo sapiens, UniProt P52333)
CK1_alpha1L = biological target: T6, CK1_alpha1L (Homo sapiens, UniProt Q8N752)
T6 construct: gene CSNK1A1L

CK1_alpha1 = biological target: T7, CK1_alpha1 (Homo sapiens, UniProt P48729)
T7 construct: gene CSNK1A1

LynB = biological target: T8, LynB (Homo sapiens, UniProt P07948)
T8 construct: gene LYN; isoform B

PKC_alpha = biological target: T9, PKC_alpha (Homo sapiens, UniProt P17252)
T9 construct: gene PRKCA

PLK1 = PLK1 (Homo sapiens, UniProt P53350)
DCAMKL1 = biological target: T10, DCAMKL1 (Homo sapiens, UniProt O15075)
T10 construct: gene DCLK1

MARK2 = MARK2 (Homo sapiens, UniProt Q7KZI7)
PRK1 = biological target: T11, PRK1 (Homo sapiens, UniProt Q16512)
T11 construct: gene PKN1

PKG2 = biological target: T12, PKG2 (Homo sapiens, UniProt Q13237)
T12 construct: gene PRKG2

SGK1 = SGK1 (Homo sapiens, UniProt O00141)
PrKX = PrKX (Homo sapiens, UniProt P51817)
IKK_beta = biological target: T13, IKK_beta (Homo sapiens, UniProt O14920)
T13 construct: gene IKBKB

PKC_delta = biological target: T14, PKC_delta (Homo sapiens, UniProt Q05655)
T14 construct: gene PRKCD

DYRK3 = DYRK3 (Homo sapiens, UniProt O43781)
CSK = CSK (Homo sapiens, UniProt P41240)
eEF-2K = biological target: T15, eEF-2K (Homo sapiens, UniProt O00418)
T15 construct: gene EEF2K

PKC_beta2 = biological target: T16, PKC_beta2 (Homo sapiens, UniProt P05771)
T16 construct: gene PRKCB; isoform beta 2

MAPKAPK2 = MAPKAPK2 (Homo sapiens, UniProt P49137)
GRK4 = GRK4 (Homo sapiens, UniProt P32298)
Blk = Blk (Homo sapiens, UniProt P51451)
InsR = InsR (Homo sapiens, UniProt P06213)
CLK2 = CLK2 (Homo sapiens, UniProt P49760)
MST3 = biological target: T17, MST3 (Homo sapiens, UniProt Q9Y6E0)
T17 construct: gene STK24

PDGFR_beta = biological target: T18, PDGFR_beta (Homo sapiens, UniProt P09619)
T18 construct: gene PDGFRB

FGFR4 = FGFR4 (Homo sapiens, UniProt P22455)
YSK4 = biological target: T19, YSK4 (Homo sapiens, UniProt Q56UN5)
T19 construct: gene MAP3K19

PLK2 = PLK2 (Homo sapiens, UniProt Q9NYY3)
Frk = Frk (Homo sapiens, UniProt P42685)
Chain of Frk (P42685 whole entry): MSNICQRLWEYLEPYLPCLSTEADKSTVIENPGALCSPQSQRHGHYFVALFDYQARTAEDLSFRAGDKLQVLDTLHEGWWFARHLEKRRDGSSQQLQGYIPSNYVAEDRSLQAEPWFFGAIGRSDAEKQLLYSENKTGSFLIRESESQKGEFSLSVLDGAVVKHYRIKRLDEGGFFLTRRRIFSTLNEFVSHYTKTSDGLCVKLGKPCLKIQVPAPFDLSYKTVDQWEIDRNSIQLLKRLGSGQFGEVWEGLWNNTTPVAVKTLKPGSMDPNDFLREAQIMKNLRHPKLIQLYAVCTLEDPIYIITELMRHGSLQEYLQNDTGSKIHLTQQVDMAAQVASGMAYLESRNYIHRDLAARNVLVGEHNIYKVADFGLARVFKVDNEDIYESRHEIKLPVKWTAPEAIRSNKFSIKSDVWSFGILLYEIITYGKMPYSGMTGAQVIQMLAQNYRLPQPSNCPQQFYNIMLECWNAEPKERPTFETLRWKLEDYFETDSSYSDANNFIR

T14 sequence (Q05655 whole entry): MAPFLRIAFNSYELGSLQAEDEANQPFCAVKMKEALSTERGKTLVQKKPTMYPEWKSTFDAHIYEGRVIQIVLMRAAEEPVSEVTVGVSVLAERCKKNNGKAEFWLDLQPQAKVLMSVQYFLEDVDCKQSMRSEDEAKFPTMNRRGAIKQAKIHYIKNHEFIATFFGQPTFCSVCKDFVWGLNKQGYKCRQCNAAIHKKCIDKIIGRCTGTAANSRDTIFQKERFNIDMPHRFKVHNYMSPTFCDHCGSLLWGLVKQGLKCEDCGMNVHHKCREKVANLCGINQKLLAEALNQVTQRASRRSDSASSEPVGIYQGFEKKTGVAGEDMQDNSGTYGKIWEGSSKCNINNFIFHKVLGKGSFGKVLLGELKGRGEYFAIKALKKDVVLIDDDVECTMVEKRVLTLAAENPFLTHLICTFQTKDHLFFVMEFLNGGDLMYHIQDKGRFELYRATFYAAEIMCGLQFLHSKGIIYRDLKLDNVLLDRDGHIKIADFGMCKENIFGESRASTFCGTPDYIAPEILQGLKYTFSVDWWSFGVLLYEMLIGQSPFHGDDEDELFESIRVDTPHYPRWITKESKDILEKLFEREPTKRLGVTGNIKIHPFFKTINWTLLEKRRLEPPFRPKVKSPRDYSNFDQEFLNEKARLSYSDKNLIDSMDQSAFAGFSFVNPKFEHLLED
Chain of PLK2 (Q9NYY3 whole entry): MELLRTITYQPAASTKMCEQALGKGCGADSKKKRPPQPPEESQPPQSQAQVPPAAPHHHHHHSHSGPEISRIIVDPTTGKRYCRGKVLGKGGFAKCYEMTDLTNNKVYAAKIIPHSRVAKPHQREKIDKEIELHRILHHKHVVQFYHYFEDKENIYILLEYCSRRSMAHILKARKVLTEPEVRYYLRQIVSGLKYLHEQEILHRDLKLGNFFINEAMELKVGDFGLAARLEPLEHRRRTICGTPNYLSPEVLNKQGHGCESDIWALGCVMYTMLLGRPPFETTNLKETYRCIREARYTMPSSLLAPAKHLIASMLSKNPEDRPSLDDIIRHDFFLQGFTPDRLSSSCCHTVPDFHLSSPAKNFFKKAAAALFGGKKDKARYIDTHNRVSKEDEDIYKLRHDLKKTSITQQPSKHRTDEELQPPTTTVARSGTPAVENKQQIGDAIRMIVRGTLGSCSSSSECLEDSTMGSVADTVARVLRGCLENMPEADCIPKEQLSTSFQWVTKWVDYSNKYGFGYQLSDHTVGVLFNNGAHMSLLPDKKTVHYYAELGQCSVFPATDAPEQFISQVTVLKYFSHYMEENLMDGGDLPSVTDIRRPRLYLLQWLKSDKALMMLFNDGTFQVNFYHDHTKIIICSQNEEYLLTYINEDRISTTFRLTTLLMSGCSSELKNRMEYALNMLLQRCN
T17 sequence (Q9Y6E0 whole entry): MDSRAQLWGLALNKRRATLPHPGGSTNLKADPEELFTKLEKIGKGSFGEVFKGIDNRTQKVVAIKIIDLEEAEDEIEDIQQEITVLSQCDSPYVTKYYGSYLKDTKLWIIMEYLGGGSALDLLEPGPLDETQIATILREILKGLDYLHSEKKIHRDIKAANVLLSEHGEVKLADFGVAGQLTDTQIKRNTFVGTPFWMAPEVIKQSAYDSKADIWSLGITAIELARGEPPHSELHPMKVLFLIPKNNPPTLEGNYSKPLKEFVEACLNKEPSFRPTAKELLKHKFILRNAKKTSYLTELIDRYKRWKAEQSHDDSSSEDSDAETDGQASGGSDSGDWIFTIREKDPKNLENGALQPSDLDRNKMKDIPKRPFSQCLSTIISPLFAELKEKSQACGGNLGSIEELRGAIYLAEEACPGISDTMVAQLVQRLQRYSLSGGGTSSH
Chain of FGFR4 (P22455 whole entry): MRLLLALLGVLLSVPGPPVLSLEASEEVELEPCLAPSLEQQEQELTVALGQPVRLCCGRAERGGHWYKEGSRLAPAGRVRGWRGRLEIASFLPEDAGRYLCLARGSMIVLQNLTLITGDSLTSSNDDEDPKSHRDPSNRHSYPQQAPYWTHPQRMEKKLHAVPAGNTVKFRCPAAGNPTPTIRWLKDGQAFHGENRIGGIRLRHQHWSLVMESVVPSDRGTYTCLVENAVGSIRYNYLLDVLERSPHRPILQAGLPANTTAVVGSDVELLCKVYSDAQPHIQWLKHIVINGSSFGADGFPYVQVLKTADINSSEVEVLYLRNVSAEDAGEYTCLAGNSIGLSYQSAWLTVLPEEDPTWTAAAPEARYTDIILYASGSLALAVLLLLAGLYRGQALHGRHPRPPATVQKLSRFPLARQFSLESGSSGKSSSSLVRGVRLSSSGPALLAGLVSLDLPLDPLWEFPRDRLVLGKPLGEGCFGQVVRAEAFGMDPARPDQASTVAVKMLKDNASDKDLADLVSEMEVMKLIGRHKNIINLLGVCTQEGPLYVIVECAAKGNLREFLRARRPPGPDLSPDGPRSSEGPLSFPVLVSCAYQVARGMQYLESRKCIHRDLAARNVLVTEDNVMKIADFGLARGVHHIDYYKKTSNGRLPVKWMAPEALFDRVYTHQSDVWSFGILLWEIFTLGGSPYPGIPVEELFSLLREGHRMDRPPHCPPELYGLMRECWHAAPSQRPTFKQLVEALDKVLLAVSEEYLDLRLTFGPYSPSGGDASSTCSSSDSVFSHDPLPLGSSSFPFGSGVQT
Chain of Fyn (P06241 whole entry): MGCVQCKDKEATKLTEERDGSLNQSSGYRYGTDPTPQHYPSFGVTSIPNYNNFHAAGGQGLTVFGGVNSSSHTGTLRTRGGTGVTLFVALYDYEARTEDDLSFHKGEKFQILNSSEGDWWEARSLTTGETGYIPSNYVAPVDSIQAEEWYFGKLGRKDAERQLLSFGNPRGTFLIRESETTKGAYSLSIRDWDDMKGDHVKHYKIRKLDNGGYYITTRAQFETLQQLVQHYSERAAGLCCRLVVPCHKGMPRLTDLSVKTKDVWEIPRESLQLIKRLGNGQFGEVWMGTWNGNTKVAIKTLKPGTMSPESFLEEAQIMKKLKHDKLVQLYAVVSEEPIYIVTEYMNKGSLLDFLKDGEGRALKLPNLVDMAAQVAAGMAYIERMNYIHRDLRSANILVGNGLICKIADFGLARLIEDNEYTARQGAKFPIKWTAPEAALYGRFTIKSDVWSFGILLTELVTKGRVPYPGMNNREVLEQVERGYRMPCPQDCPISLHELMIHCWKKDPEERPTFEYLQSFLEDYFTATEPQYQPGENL
T5 sequence (Q02156 whole entry): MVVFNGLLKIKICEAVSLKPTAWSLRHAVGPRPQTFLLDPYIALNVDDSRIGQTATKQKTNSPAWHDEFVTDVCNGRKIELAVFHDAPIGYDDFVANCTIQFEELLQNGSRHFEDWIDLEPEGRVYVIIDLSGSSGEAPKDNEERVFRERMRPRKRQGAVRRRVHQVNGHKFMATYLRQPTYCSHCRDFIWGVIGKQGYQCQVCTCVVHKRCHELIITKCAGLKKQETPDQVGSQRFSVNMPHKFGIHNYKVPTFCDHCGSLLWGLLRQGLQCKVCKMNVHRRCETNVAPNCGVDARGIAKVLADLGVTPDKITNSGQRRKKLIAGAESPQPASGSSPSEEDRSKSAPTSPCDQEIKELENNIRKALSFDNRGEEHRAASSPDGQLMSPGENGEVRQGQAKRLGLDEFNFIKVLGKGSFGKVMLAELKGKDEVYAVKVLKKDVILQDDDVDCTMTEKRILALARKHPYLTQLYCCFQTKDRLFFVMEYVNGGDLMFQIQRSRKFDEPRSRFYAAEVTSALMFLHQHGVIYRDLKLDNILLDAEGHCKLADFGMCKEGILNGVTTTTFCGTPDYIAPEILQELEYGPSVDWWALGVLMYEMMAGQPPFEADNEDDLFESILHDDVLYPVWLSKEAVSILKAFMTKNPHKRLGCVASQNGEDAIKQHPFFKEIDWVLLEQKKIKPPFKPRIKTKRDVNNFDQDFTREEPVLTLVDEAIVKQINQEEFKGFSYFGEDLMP
Chain of CLK2 (P49760 whole entry): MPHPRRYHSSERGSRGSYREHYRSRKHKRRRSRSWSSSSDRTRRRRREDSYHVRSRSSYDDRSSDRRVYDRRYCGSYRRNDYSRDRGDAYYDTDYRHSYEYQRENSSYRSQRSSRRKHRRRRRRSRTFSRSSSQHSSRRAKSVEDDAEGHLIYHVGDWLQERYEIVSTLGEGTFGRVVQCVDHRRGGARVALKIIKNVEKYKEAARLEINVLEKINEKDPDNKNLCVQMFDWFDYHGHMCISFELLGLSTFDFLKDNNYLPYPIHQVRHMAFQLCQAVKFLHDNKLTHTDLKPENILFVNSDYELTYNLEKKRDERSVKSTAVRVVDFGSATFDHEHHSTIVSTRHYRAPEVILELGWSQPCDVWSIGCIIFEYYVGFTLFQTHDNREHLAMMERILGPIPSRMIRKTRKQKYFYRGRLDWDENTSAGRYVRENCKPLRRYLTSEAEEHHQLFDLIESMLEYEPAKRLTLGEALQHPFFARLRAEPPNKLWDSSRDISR

inhibition (Fyn): 53%
inhibition (CamKIV): 6.5%
inhibition (DYRK1A): 9.5%
inhibition (PKC_gamma): 8%
inhibition (EphA8): 8%
inhibition (ERK2): 12.5%
inhibition (IRR): 6.5%
inhibition (Bmx): 13.5%
inhibition (PKC_epsilon): 16%
inhibition (JAK3): 2%
inhibition (CK1_alpha1L): 3%
inhibition (CK1_alpha1): 5.5%
inhibition (LynB): 37%
inhibition (PKC_alpha): 13.5%
inhibition (PLK1): 8%
inhibition (DCAMKL1): -2.5%
inhibition (MARK2): 5.5%
inhibition (PRK1): -7%
inhibition (PKG2): -11%
inhibition (SGK1): 2%
inhibition (PrKX): 6.5%
inhibition (IKK_beta): -0.5%
inhibition (PKC_delta): 15.5%
inhibition (DYRK3): -0.5%
inhibition (CSK): 56.5%
inhibition (eEF-2K): 7%
inhibition (PKC_beta2): 9.5%
inhibition (MAPKAPK2): 7.5%
inhibition (GRK4): -11.5%
inhibition (Blk): 25%
inhibition (InsR): 9.5%
inhibition (CLK2): 18.5%
inhibition (MST3): 7%
inhibition (PDGFR_beta): -4%
inhibition (FGFR4): 6%
inhibition (YSK4): 1%
inhibition (PLK2): 2.5%
inhibition (Frk): 4.5%
SMILES: CC(C)(O)CC(=O)NCCn1ccc2ncnc(Nc3ccc(Oc4cccc(C(F)(F)F)c4)c(Cl)c3)c21 [TAK-285]
